Columns and labels:
C. jejuni = C. jejuni induced colitis, histological intestinal inflammation score; format: in vivo, mice; conditions: AS252424 10 mg/kg i.p. daily, 6 days, vs vehicle
Source text: All animal protocols were approved by the Institutional Animal Care and Use Committee of the University of North Carolina at Chapel Hill (Chapel Hill, N.C., United States of America). Germ-free 8 to 12 week old II10^−/−; NF-κBEGFP (129/SvEv; C57BL/6 mixed background) mice were transferred from germ-free isolators and immediately gavaged with 10^9 C. jejuni cfu/mouse (strain 81-176 (Korlath et al., 1985)). Mice were then housed under Specific Pathogen-Free (SPF) conditions and sacrificed at 5 or 12 days. […] Intestinal inflammation was scored by evaluating the degree of lamina propria immune cell infiltration, goblet cell depletion, architectural distortion, as well as crypt hyperplasia, ulceration, and abscesses using a score from 0-4. […] Cecal and colonic inflammation induced by S. typhimurium was evaluated using a score from 0-13 as described. […]
All animal protocols were approved by the Institutional Animal Care and Use Committee of the University of North Carolina at Chapel Hill (Chapel Hill, N.C., United States of America). […] Histological images were acquired using a DP71 camera and DP Controller 3.1.1.276 (Olympus, Center Valley, Pa., United States of America), and intestinal inflammation was scored on a scale of 0 to 4 as described before (Lippert et al., 2009; Sun et al., 2012). […]

p70S6 kinase (T389) = experiment: Western blot of colonic p70S6K phosphorylation in C. jejuni infected mice; format: in vivo; conditions: AS252424 10 mg/kg i.p. daily, 6 days
Protocol: Whole tissues were lysed in Laemmli buffer and 20 μg of protein was separated by SDS-PAGE, transferred to nitrocellulose membranes and protein detected using enhanced chemiluminescence reaction (ECL) as described previously. (Lippert et al., 2009). Primary antibodies used were phospho-p70S6K (T389) and p70S6K (Cell Signaling, Danvers, Mass., United States of America), EGFP (Sigma, St. Louis, Mo., United States of America), LC3 I/II (MBL) and Actin.
A segment of the distal colon was lysed in 300 μl Laemmli buffer, homogenized and heated at 95° C. for 5 min. 20 μg of total protein were separated by SDS-PAGE and transferred to nitrocellulose membranes. Targeted protein was detected using enhanced chemiluminescence reaction (ECL) as described previously (Muhlbauer et al., 2008). Primary antibodies used were phosphor-AKT (S473), phosphor-p70S6K (T389), total AKT (all from Cell Signaling, Danvers, Mass., United States of America) and EGFP (Sigma, St. Louis, Mo., United States of America). The density of Western blot bands was quantified using ImageJ and data were normalized to total AKT control.

## O=C1NC(=O)/C(=C/c2ccc(-c3ccc(F)cc3O)o2)S1 [AS252424]
C. jejuni
  C. jejuni-induced colitis: reduced
p70S6 kinase (T389)
  attenuation of p70S6K phosphorylation (T389) in colonic extracts: 34%
